Results as given in ChEMBL document CHEMBL4385641 (Bioorg Med Chem, 2019).
pKi: −log10 of the molar value.

Experiments:
Cannabinoid receptor 1 [1] = target: T1, Cannabinoid receptor 1 (Homo sapiens, UniProt P21554); assay: Inverse agonist activity at human CB1 receptor expressed in CHOK1 cells co-expressing Galphaq16 assessed as apparent equilibrium constant after 90 secs by […]-4 AM dye-based FLIPR assay; format: cell-based
Cannabinoid receptor 1 [2] = target: T1, Cannabinoid receptor 1; assay: Displacement of [3H]-CP55940 from human CB1 receptor expressed in CHO cell membranes
Cannabinoid receptor 2 = Cannabinoid receptor 2 (Homo sapiens, UniProt P34972); assay: Displacement of [3H]-CP55940 from human CB2 receptor expressed in CHO cell membranes
Chain of Cannabinoid receptor 2 (P34972 whole entry): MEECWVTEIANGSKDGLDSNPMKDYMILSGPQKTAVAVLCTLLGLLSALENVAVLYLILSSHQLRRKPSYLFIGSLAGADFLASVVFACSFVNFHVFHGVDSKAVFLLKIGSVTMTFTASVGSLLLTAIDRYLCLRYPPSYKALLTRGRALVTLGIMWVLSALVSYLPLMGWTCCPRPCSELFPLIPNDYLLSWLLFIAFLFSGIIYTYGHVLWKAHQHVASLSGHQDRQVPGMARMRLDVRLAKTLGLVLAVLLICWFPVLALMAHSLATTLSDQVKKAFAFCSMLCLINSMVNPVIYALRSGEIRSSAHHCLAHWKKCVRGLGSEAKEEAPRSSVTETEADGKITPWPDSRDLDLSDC

Homo sapiens = organism: Homo sapiens; assay: Selectivity ratio of Ki for displacement of [3H]-CP55940 from human CB2 receptor expressed in CHO cell membranes to Ki for displacement of [3H]-CP55940 from human CB1 receptor expressed in CHO cell membranes
[3] = Permeability across apical to basolateral side in MDCK-MDR1 cells at 10 uM incubated for 1 hr by mass spectrometric method; format: ADME, cell-based, Canis lupus familiaris; conditions: dog, mdck-mdr1, 1 h

T1 sequence (P21554 whole entry): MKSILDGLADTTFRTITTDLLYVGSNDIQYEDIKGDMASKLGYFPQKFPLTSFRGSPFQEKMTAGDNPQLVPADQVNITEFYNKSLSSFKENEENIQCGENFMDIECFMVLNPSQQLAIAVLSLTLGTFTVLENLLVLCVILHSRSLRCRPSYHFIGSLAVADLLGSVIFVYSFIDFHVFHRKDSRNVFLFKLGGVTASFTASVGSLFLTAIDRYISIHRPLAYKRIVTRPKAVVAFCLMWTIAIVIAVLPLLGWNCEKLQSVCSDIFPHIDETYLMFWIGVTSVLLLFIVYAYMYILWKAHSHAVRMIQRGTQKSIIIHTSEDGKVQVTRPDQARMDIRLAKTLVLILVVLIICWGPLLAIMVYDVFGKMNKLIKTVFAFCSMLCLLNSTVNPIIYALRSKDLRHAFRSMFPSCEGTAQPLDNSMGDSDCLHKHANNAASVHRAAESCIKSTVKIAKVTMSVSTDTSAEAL

Structure (SMILES)	Ke(app) (Cannabinoid receptor 1 [1]) [nM]	pKi (Cannabinoid receptor 1 [2])	pKi (Cannabinoid receptor 2)	Ratio Ki (Homo sapiens)	permeability [3] [%]
Cn1nnnc1CCC(=O)NC1CCN(c2ncnc3c2nc(-c2ccccc2Cl)n3-c2ccc(Cl)cc2)CC1	> 10000	–	–	–	–
CN(Cc1ccc(F)cc1)C1CCN(c2ncnc3c2nc(-c2ccccc2Cl)n3-c2ccc(Cl)cc2)CC1	460	–	–	–	–
O=C(NC1CCN(c2ncnc3c2nc(-c2ccccc2Cl)n3-c2ccc(Cl)cc2)CC1)C1CCOC1 (centres undefined)	150	–	–	–	–
Cc1cc(-n2c(-c3ccccc3Cl)nc3c(N4CCC(NS(=O)(=O)c5ccc(F)c(F)c5)CC4)ncnc32)no1	56	6.38	< 5.00	> 20	–
O=S(=O)(NC1CCN(c2ncnc3c2nc(-c2ccccc2Cl)n3-c2ccc(C(F)(F)F)nc2)CC1)c1ccc(F)c(F)c1	1	8.00	< 5.22	> 600	–
O=C(NC1CCN(c2ncnc3c2nc(-c2ccccc2Cl)n3-c2ccc(C(F)(F)F)nc2)CC1)c1ccccc1	19	8.10	6.13	92	3
O=S(=O)(NC1CCN(c2ncnc3c2nc(-c2ccccc2Cl)n3-c2ccc(F)cc2)CC1)c1ccccc1F	21	8.59	< 5.00	> 3000	–
O=C(NC1CCN(c2ncnc3c2nc(-c2ccccc2Cl)n3-c2ccc(Cl)cc2)CC1)c1ccc(F)c(F)c1	0.7	8.52	5.23	2000	0.2
Clc1ccc(-n2c(-c3ccccc3Cl)nc3c(N4CCC(NCc5ccncc5)CC4)ncnc32)cc1	580	–	–	–	–
O=C(CC1CCOCC1)NC1CCN(c2ncnc3c2nc(-c2ccccc2Cl)n3-c2ccc(Cl)cc2)CC1	510	–	–	–	–
Fc1ccc(CNC2CCN(c3ncnc4c3nc(-c3ccccc3Cl)n4-c3ccc(Cl)cc3)CC2)cc1	210	–	–	–	–
Clc1ccc(-n2c(-c3ccccc3Cl)nc3c(N4CCC(NCc5ccccc5)CC4)ncnc32)cc1	150	–	–	–	–
O=C(NC1CCN(c2ncnc3c2nc(-c2ccccc2Cl)n3-c2ccc(Cl)cc2)CC1)c1ccccn1	140	–	–	–	–
CC(C)(C)OCCC(=O)NC1CCN(c2ncnc3c2nc(-c2ccccc2Cl)n3-c2ccc(Cl)cc2)CC1	1.7	8.22	5.31	820	20
O=C(NC1CCN(c2ncnc3c2nc(-c2ccccc2Cl)n3-c2ccc(Cl)cc2)CC1)OC1CCOCC1	320	–	–	–	–
O=S(=O)(CC1CCCCC1)NC1CCN(c2ncnc3c2nc(-c2ccccc2Cl)n3-c2ccc(Cl)cc2)CC1	31	8.05	< 5.00	> 1100	< 0.1
O=S(=O)(NC1CCN(c2ncnc3c2nc(-c2ccccc2Cl)n3-c2ccc(Cl)cc2)CC1)c1ccc(F)cc1	1.1	8.48	5.05	> 2000	0.1
CCCCCS(=O)(=O)NC1CCN(c2ncnc3c2nc(-c2ccccc2Cl)n3-c2ccc(Cl)cc2)CC1	29	8.05	6.24	63	< 0.1
Clc1ccc(-n2c(-c3ccccc3Cl)nc3c(N4CCC(Nc5ncccn5)CC4)ncnc32)cc1	43	–	–	–	–
CN1CCC(COC(=O)NC2CCN(c3ncnc4c3nc(-c3ccccc3Cl)n4-c3ccc(Cl)cc3)CC2)CC1	1500	–	–	–	–
O=C(CN1CCCCC1)NC1CCN(c2ncnc3c2nc(-c2ccccc2Cl)n3-c2ccc(Cl)cc2)CC1	220	–	–	–	–
O=S(=O)(NC1CCN(c2ncnc3c2nc(-c2ccccc2Cl)n3-c2ccc(OC(F)F)nc2)CC1)c1ccccc1F	0.7	8.80	6.72	120	–
O=S(=O)(NC1CCN(c2ncnc3c2nc(-c2ccccc2Cl)n3-c2ccc(C(F)(F)F)nc2)CC1)c1ccccc1F	0.5	8.40	6.40	100	–
CC(C)(C)CC(=O)NC1CCN(c2ncnc3c2nc(-c2ccccc2Cl)n3-c2ccc(Cl)cc2)CC1	0.3	9.70	7.82	75	–
O=C(NC1CCN(c2ncnc3c2nc(-c2ccccc2Cl)n3-c2ccc(Cl)cc2)CC1)C1CCOCC1	440	–	–	–	–
O=C(NC1CCN(c2ncnc3c2nc(-c2ccccc2Cl)n3-c2ccc(Cl)cc2)CC1)OCc1ccccc1	3	8.40	6.15	180	–

Structure (SMILES)	Ke(app) (Cannabinoid receptor 1 [1]) [nM]	pKi (Cannabinoid receptor 1 [2])	pKi (Cannabinoid receptor 2)	Ratio Ki (Homo sapiens)	permeability [3] [%]
O=C(NC1CCN(c2ncnc3c2nc(-c2ccccc2Cl)n3-c2ccc(Cl)cc2)CC1)OC1COC1	92	–	–	–	–
O=C(NC1CCN(c2ncnc3c2nc(-c2ccccc2Cl)n3-c2ccc(Cl)cc2)CC1)OCC1COC1	77	–	–	–	–
O/N=C(\c1ccc(F)cc1)C1CCN(c2ncnc3c2nc(-c2ccccc2Cl)n3-c2ccc(Cl)cc2)CC1 (stereo in doubt; 20)	20	–	–	> 2000	–
Clc1ccc(-n2c(-c3ccccc3Cl)nc3c(N4CCC(Nc5ccccc5)CC4)ncnc32)cc1	1.4	8.22	< 5.00	> 1600	0
O=S(=O)(NC1CCN(c2ncnc3c2nc(-c2ccccc2Cl)n3-c2ccc(Cl)cc2)CC1)c1ccc(F)cc1F	2	–	< 5.00	> 5000	0.1
CS(=O)(=O)CCC(=O)NC1CCN(c2ncnc3c2nc(-c2ccccc2Cl)n3-c2ccc(Cl)cc2)CC1	6000	–	–	–	–
O=S(=O)(CCC(F)(F)F)NC1CCN(c2ncnc3c2nc(-c2ccccc2Cl)n3-c2ccc(Cl)cc2)CC1	12	8.40	6.38	105	1
COCCC(=O)NC1CCN(c2ncnc3c2nc(-c2ccccc2Cl)n3-c2ccc(Cl)cc2)CC1	370	–	–	–	–
O=C(CC1CCOC1)NC1CCN(c2ncnc3c2nc(-c2ccccc2Cl)n3-c2ccc(Cl)cc2)CC1 (centres undefined)	1000	–	–	–	–
O/N=C(\c1ccc(F)cc1)C1CCN(c2ncnc3c2nc(-c2ccccc2Cl)n3-c2ccc(Cl)cc2)CC1 (stereo in doubt; 21)	21	–	–	> 1400	–
CN(Cc1ccccc1)C1CCN(c2ncnc3c2nc(-c2ccccc2Cl)n3-c2ccc(Cl)cc2)CC1	34	–	5.57	64	–
O=C(NC1CCN(c2ncnc3c2nc(-c2ccccc2Cl)n3-c2ccc(Cl)cc2)CC1)OC1CCC1	1	9.22	5.98	1800	–
CCOCC(=O)NC1CCN(c2ncnc3c2nc(-c2ccccc2Cl)n3-c2ccc(Cl)cc2)CC1	240	–	–	–	–
Clc1ccc(-n2c(-c3ccccc3Cl)nc3c(N4CCC(Nc5ccncc5)CC4)ncnc32)cc1	100	–	–	–	–
Cn1cc(-n2c(-c3ccccc3Cl)nc3c(N4CCC(NS(=O)(=O)c5ccc(F)c(F)c5)CC4)ncnc32)cn1	140	–	–	–	–
CC(=O)Nc1ccc(-n2c(-c3ccccc3Cl)nc3c(N4CCC(NS(=O)(=O)c5ccc(F)c(F)c5)CC4)ncnc32)cn1	2700	–	–	–	–
Nc1ccc(-n2c(-c3ccccc3Cl)nc3c(N4CCC(NS(=O)(=O)c5ccc(F)c(F)c5)CC4)ncnc32)cn1	> 10000	–	–	–	–
NC(=O)c1ccc(-n2c(-c3ccccc3Cl)nc3c(N4CCC(NS(=O)(=O)c5ccc(F)c(F)c5)CC4)ncnc32)cc1	330	–	–	–	–
O=C(NC1CCN(c2ncnc3c2nc(-c2ccccc2Cl)n3-c2ccc(Cl)cc2)CC1)C1CCSCC1	26	8.52	5.72	630	–
O=C(CN1CCOCC1)NC1CCN(c2ncnc3c2nc(-c2ccccc2Cl)n3-c2ccc(Cl)cc2)CC1	1100	–	–	–	–
O=C(NC1CCN(c2ncnc3c2nc(-c2ccccc2Cl)n3-c2ccc(Cl)cc2)CC1)C1CCS(=O)(=O)CC1	> 10000	–	–	–	–
O=S(=O)(NC1CCN(c2ncnc3c2nc(-c2ccccc2Cl)n3-c2cc(C(F)(F)F)[nH]n2)CC1)c1ccc(F)c(F)c1	5000	–	–	–	–
Clc1ccc(-n2c(-c3ccccc3Cl)nc3c(N4CCC(c5nc6ccccc6[nH]5)CC4)ncnc32)cc1	12	–	6.08	18	–
CC(C)(O)CC(=O)NC1CCN(c2ncnc3c2nc(-c2ccccc2Cl)n3-c2ccc(Cl)cc2)CC1	1700	–	–	–	–
Cn1ccc(-n2c(-c3ccccc3Cl)nc3c(N4CCC(NS(=O)(=O)c5ccc(F)c(F)c5)CC4)ncnc32)n1	120	–	–	–	–
